Source: patent publication US8304394B2, “Low side effect pharmaceutical composition containing isoniazid” (priority 2008, dated 2012)

Columns and labels:
CYP2E1 [1] = target: T1, CYP2E1 (Homo sapiens, UniProt P05181); experiment: in vitro; settings: for inhibition at 40 min, 33 µM: pH 7.4; for inhibition at 40 min, 16.5 µM / inhibition at 40 min, 66 µM: pH 7.4, Inhibition of CYP 2E1 (%); for inhibition at 40 min, 16.5 µM: tested concentration 16.5 μM; for inhibition at 40 min, 66 µM: tested concentration 66 μM
CYP2E1 [2] = target: T1, CYP2E1; experiment: Chlorzoxazone hydroxylation inhibition (6-OH-CZX by LC/MS/MS); settings: human, microsomes, pH 7.4
[3] = target: human liver microsomal cytochrome P450 2E1 (CYP2E1) (Homo sapiens, UniProt P05181); experiment: as above
human liver microsomal cytochrome P450 2E1 (CYP2E1), sequence (P05181 whole entry): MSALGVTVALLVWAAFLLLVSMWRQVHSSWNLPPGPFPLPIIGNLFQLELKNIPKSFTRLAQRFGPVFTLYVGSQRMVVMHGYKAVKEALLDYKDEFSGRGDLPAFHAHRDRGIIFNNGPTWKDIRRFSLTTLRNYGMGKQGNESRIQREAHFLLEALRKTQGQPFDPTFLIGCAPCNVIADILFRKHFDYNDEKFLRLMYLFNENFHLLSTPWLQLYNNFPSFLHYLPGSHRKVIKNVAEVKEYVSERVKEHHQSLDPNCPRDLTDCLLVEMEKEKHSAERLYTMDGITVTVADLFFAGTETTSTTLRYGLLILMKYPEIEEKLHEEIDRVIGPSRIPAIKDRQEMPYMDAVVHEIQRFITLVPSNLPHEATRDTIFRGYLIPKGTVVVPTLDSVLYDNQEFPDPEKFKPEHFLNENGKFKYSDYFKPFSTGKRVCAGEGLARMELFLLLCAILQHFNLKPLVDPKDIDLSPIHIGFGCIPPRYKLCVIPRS

T1 sequence (P05181 whole entry): as above

Structure (SMILES) | inhibition at 40 min, 33 µM (CYP2E1 [1]) [%] | inhibition at 40 min, 16.5 µM (CYP2E1 [1]) [%] | inhibition at 40 min, 66 µM (CYP2E1 [1]) [%] | inhibition at 30 min, 16.5 µM (CYP2E1 [2]) [%] | inhibition at 30 min, 33 µM (CYP2E1 [2]) [%] | inhibition at 30 min, 66 µM (CYP2E1 [2]) [%] | Inhibition of CYP 2E1 (%) ([3]; tested concentration 16.5 μM) | Inhibition of CYP 2E1 (%) ([3]; tested concentration 33 μM) | Inhibition of CYP 2E1 (%) ([3]; tested concentration 66 μM)
O=C(CCc1ccc(O)cc1)c1c(O)cc(O)cc1O [Phloretin] | 54.7 ± 2.84 | 42 ± 3.63 | 66.8 ± 4.79 | 29.6 ± 3.21 | 39.8 ± 3.28 | 50.9 ± 2.09 |  |  | 
COc1cc(C2Oc3cc([C@H]4Oc5cc(O)cc(O)c5C(=O)[C@@H]4O)ccc3OC2CO)ccc1O (stereo partly shown) [Silybin] |  |  |  | 59.5 ± 2.34 | 37.1 ± 1.15 | 39 ± 1.19 |  |  | 
O=c1c(-c2ccc(O)cc2)coc2cc(O)cc(O)c12 [Genistein] |  |  |  | 43.9 ± 2.06 | 30.9 ± 1.62 | 36.9 ± 1.56 |  |  | 
O=c1cc(-c2ccc(O)cc2)oc2cc(O)cc(O)c12 [Apigenin] |  |  |  | 28.9 ± 1.54 | 36.8 ± 1.98 | 47.5 ± 3.66 |  |  | 
C=C(C)C1CC=C(C)CC1 (single isomer, unassigned; (+)) [(+)-Limonene] |  |  |  |  |  |  | 13.77 ± 1.96 | 38.05 ± 1.95 | 63.64 ± 2.74
O=C/C=C/c1ccccc1 [Trans-Cinnamaldehyde] |  |  |  | 60.8 ± 3 | 89.6 ± 1.52 | 92.81 ± 0.53 |  |  | 
O=C(CCc1ccc(O)cc1)c1c(O)cc(O)cc1O[C@@H]1O[C@H](CO)[C@@H](O)[C@H](O)[C@H]1O [Phloridzin] | 3.76 ± 3.58 | 1.25 ± 7.9 | 1.42 ± 9.28 |  |  |  |  |  | 
O=C(O)/C=C/c1ccccc1 [trans-Cinnamic acid] | 4.66 ± 6.5 | 5.71 ± 10.5 | 7.1 ± 6.95 |  |  |  |  |  | 
O=C(O)c1ccc(O)c(O)c1 [Protocatechuic acid] | 19.9 ± 8.95 | 25.7 ± 12.7 | 22.8 ± 4.07 |  |  |  |  |  | 
CCCCCCCCCCCC1=C(O)C(=O)C=C(O)C1=O [Embelin] | 12.3 ± 10.2 | 5.95 ± 7.48 | 13.5 ± 11.6 |  |  |  |  |  | 
COc1ccc([C@@H]2CC(=O)c3c(O)cc(O[C@@H]4O[C@H](CO)[C@@H](O)[C@H](O)[C@H]4O[C@@H]4O[C@@H](C)[C@H](O)[C@@H](O)[C@H]4O)cc3O2)cc1O [Neohesperidin] |  |  |  |  |  |  | 42.81 ± 1.75 | 48.96 ± 2.37 | 58.70 ± 1.06
C=CC(=C)CCC=C(C)C [β-Myrcene] |  |  |  | 53.4 ± 4.93 | 75.5 ± 2.14 | 76.5 ± 2.18 |  |  | 
C[C@@H]1O[C@@H](OC[C@H]2O[C@@H](Oc3c(-c4ccc(O)c(O)c4)oc4cc(O)cc(O)c4c3=O)[C@H](O)[C@@H](O)[C@@H]2O)[C@H](O)[C@H](O)[C@H]1O [Rutin] |  |  |  | 30 ± 0.81 | 30.1 ± 1.62 | 43.5 ± 3.09 |  |  | 
O=c1c(O)c(-c2ccc(O)c(O)c2)oc2cc(O)cc(O)c12 [Quercetin] |  |  |  | 46.4 ± 4.68 | 53 ± 2.17 | 73.3 ± 1.57 |  |  | 
O=C(O[C@@H]1Cc2c(O)cc(O)cc2O[C@@H]1c1cc(O)c(O)c(O)c1)c1cc(O)c(O)c(O)c1 [(−)-Epigallocetechin-3-gallate] |  |  |  |  |  |  | 50.19 ± 1.89 | 60.53 ± 2.06 | 72.16 ± 1.02
O=C(O)c1cc(O)c(O)c(O)c1 [gallic acid] | 42.7 ± 7.36 | 35.6 ± 10 | 48.2 ± 4.2 | 10.5 ± 1.12 | 18.8 ± 2.03 | 28 ± 1.56 |  |  | 
Oc1cc(O)c2c(c1)O[C@@H](c1ccc(O)c(O)c1)[C@@H](O)C2 [(+)-Epicatechin] |  |  |  |  |  |  | 66.71 ± 1.79 | 52.32 ± 1.59 | 
O=c1c(O)c(-c2ccc(O)cc2)oc2cc(O)cc(O)c12 [Kaempferol] | 70 ± 3.75 | 71.9 ± 1.14 | 70.6 ± 2.53 | 66.5 ± 1.71 | 74.74 ± 0.6 | 79.25 ± 0.27 |  |  | 
O=c1c(-c2ccc(O)cc2)coc2cc(O)ccc12 [Daidzein] |  |  |  | 73.5 ± 1.74 | 76.3 ± 2.28 | 86.8 ± 1.04 |  |  | 

Structure (SMILES) | inhibition at 40 min, 33 µM (CYP2E1 [1]) [%] | inhibition at 40 min, 16.5 µM (CYP2E1 [1]) [%] | inhibition at 40 min, 66 µM (CYP2E1 [1]) [%] | inhibition at 30 min, 16.5 µM (CYP2E1 [2]) [%] | inhibition at 30 min, 33 µM (CYP2E1 [2]) [%] | inhibition at 30 min, 66 µM (CYP2E1 [2]) [%] | Inhibition of CYP 2E1 (%) ([3]; tested concentration 16.5 μM) | Inhibition of CYP 2E1 (%) ([3]; tested concentration 33 μM) | Inhibition of CYP 2E1 (%) ([3]; tested concentration 66 μM)
O=c1c(O[C@@H]2O[C@H](CO)[C@H](O)[C@H](O)[C@H]2O)c(-c2ccc(O)c(O)c2)oc2cc(O)cc(O)c12 [Hyperoside] |  |  |  | -24.2 ± 1.19 | 35.6 ± 3.68 | 53.5 ± 1.2 |  |  | 
COc1ccc([C@@H]2CC(=O)c3c(O)cc(O)cc3O2)cc1O [Hesperetin] | 43.3 ± 0.82 | 32.1 ± 5.8 | 54.8 ± 1.37 | 25.7 ± 2.45 | 34.3 ± 2.03 | 44.6 ± 2.35 |  |  | 
COc1ccc(-c2cc(=O)c3c(O)cc(O[C@@H]4O[C@H](CO[C@@H]5O[C@@H](C)[C@H](O)[C@@H](O)[C@H]5O)[C@@H](O)[C@H](O)[C@H]4O)cc3o2)cc1O [Diosmin] |  |  |  | 60 ± 1.96 | 43.1 ± 3.57 | 21.6 ± 1.19 |  |  | 
O=C(O)[C@H]1O[C@@H](Oc2cc3oc(-c4ccccc4)cc(=O)c3c(O)c2O)[C@H](O)[C@@H](O)[C@@H]1O [Baicalin] |  |  |  | 22.5 ± 2.24 | 35.6 ± 3.09 | 49.3 ± 2.26 |  |  | 
O=c1cc(-c2ccc(O)cc2)oc2cc(O)c([C@@H]3O[C@H](CO)[C@@H](O)[C@H](O)[C@H]3O)c(O)c12 [Isovitexin] |  |  |  | 59.8 ± 1.41 | 67.6 ± 3.24 | 81.8 ± 1.34 |  |  | 
O=c1c(O)c(-c2cc(O)c(O)c(O)c2)oc2cc(O)cc(O)c12 [Myricetin] |  |  |  | 42.2 ± 2.55 | 59.2 ± 1.27 | 61.6 ± 0.88 |  |  | 
O=c1cc(-c2ccccc2)oc2cc(O)c(O)c(O)c12 [Baicalein] |  |  |  | 35.3 ± 1.51 | 47.8 ± 3.4 | 50.1 ± 5.11 |  |  | 
O=c1cc(-c2ccc(O)c(O)c2)oc2cc(O)cc(O)c12 [Luteolin] |  |  |  | 39.1 ± 3.42 | 43.4 ± 4.74 | 53.2 ± 1.78 |  |  | 
O=c1c(-c2ccc(O)cc2)coc2c([C@@H]3O[C@H](CO)[C@@H](O)[C@H](O)[C@H]3O)c(O)ccc12 [Puerarin] | -4.64 ± 3.47 | 0.43 ± 2.31 | -12.9 ± 2.75 |  |  |  |  |  | 
CCCCCCCCCCCCCC(=O)OCC [Ethyl Myristate] |  |  |  | 22.1 ± 0.78 | 41 ± 4.76 | 52 ± 2.38 |  |  | 
O=c1cc(-c2ccc(O)c(O)c2)oc2cc(O[C@@H]3O[C@H](CO)[C@@H](O)[C@H](O)[C@H]3O)cc(O)c12 [Luteolin-7-Glucoside] |  |  |  |  |  |  | 42.96 ± 5.10 | 55.87 ± 0.67 | 60.26 ± 1.11
O=C1c2c(O)cc(O)cc2O[C@H](c2ccc(O)c(O)c2)[C@H]1O [(+)-Taxifolin] |  | 22.6 ± 11.7 | 34.5 ± 3.47 |  |  |  |  |  | 
COc1cc(-c2oc3cc(O)cc(O)c3c(=O)c2O)ccc1O [Isorhamnetin] |  |  |  | 12.1 ± 1.06 | 18.7 ± 1.22 | 36.3 ± 1.59 |  |  | 
C[C@@H]1O[C@@H](Oc2c(-c3ccc(O)c(O)c3)oc3cc(O)cc(O)c3c2=O)[C@H](O)[C@H](O)[C@H]1O [Quercitrin] |  |  |  | 33.5 ± 4.29 | 53.8 ± 3.51 | 61 ± 5.88 |  |  | 
COc1ccc(-c2oc3cc(O)cc(O)c3c(=O)c2O)cc1O [Tamarixetin] |  |  |  | 37.4 ± 1.96 | 47.8 ± 2.81 | 50.9 ± 3.12 |  |  | 
O=c1c(O)c(-c2ccc(O)cc2O)oc2cc(O)cc(O)c12 [Morin] |  |  |  | 36.9 ± 1.56 | 52.1 ± 1.7 | 60.3 ± 1.56 |  |  | 
O=C1C[C@@H](c2ccc(O)cc2)Oc2cc(O)cc(O)c21 [Naringenin] | 36.8 ± 3.97 | 25.1 ± 7.6 | 41.8 ± 3.51 | 19.5 ± 2.02 | 28.4 ± 2.21 | 45.2 ± 4.43 |  |  | 
O=c1cc(-c2ccc(O)cc2)oc2c([C@@H]3O[C@H](CO)[C@@H](O)[C@H](O)[C@H]3O)c(O)cc(O)c12 [Vitexin] |  |  |  | 23.1 ± 1.19 | 30.6 ± 0.78 | 38.7 ± 1.62 |  |  | 
